# Biological target: T1, GPx4 bound to DPC micelles (Homo sapiens, UniProt P36969, U73G)
# T1 construct: Truncated U46G-GPx4 with a TEV cleavable poly-histidine tag was inserted into vector; poly-histidine tag with TEV cleavage site; host or cells: BL21 (DE3) E. coli
# T1 sequence (P36969 1-170 isoform P36969-2 U46G): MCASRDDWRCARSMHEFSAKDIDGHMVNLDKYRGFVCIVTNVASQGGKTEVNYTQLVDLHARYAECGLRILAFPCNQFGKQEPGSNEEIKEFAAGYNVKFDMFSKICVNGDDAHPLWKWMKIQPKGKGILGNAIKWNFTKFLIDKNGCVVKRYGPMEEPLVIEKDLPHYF
# Experiment: 15N-HSQC CSP experiment with GPx4 bound to DPC micelles
# Format: binding
# Details: 400 μM analogue, 0.4% DMSO
# Description: To investigate whether or not these fragments could be built upon and progress to higher affinity binders and potentially inhibitors, a secondary screening approach was used to find analogues of the original fragments. A fragment growing approach was followed due to the high success rate of improving fragment hits.[61],[62] Fragment growing improves binding affinity, or other properties, with the addition of different substitutions and/or expansions.[20] Commercially available analogues of fragments 1 and 5 were found by searching the ChemBridge (San Diego, CA) catalog for analogues with a 60% similarity for fragment 1 and a 70% similarity for fragment 5. A subset of analogues for each fragment was purchased and tested. These two fragments were the main focus for fragment progression due to their observed ability to partition into bilayers and bind to inhibitory regions of membrane-bound GPx4. Fragment 6 was not investigated further since it resides mainly in the water core of the mmRM model, and while interesting, it falls outside of our focus for this study. While all the five selected fragment 1 analogues produced reasonable CSPs in the membrane interface of GPx4; none produced titration curves that indicated enhanced binding (Table S1). […]
smiles,measurement,value
O=c1oc2c(-c3ccc(Cl)c(Cl)c3)cc(O)cc2s1 [Analog 5.5],CSPs of GPx4 bound to DPC micelles,reasonable CSPs were observed

# From publication PMC11267533, “Ligandability at the Membrane Interface of GPx4 Revealed through a Reverse Micelle Fragment Screening Platform” (JACS Au, 2024)
